Source: patent US20080058381A1, “COMBINATION OF A CB1 RECEPTOR ANTAGONIST AND OF SIBUTRAMINE, THE PHARMACEUTICAL COMPOSITIONS COMPRISING THEM AND THEIR USE IN THE TREATMENT OF OBESITY” (priority 2000, published 2008)

System: Obese Fa/fa Zucker rats
Assay: Effect on food intake (food consumption) in obese Zucker rats, five days of oral treatment
Assay type: in vivo, rat
Conditions: daily for 5 days
Procedure: The synergistic effect of the combination of sibutramine and of a CB1 receptor antagonist on food intake was determined according to the following protocol:
Obese Fa/fa Zucker rats aged 7 weeks and originating from Iffa-Credo, France, were used in this study. The rats are housed in individual cages and weighed every day between 8 and 10 o'clock in the morning. The amount of food is also weighed each morning at the same time. This food (M20, Pietrement, France) is changed every day and the rats have free access thereto for 24 hours. All the rats are treated for a week with the vehicle (miglyol 812N and 0.5% methylcellulose/0.2% polysorbate 80) in two consecutive administrations. The rats are treated from the 8th day with the vehicle, the CB1 receptor antagonist (1-[bis(4-chlorophenyl)methyl]-3-[(3,5-difluorophenyl)-(methylsulfonyl)methylene]azetidine) or sibutramine by the oral route (see table below).
The sibutramine is dissolved in a 0.5% methylcellulose/0.2% polysorbate 80 solution and administered at a dose of 3 mg/kg; the CB1 receptor antagonist is dissolved in miglyol 812N (Hüls, Germany) at a dose of 0.6 mg/kg and the two products are administered under a volume of 1 ml/kg. Each group is composed of 12 to 14 animals. […]
The food consumption of each animal is measured every day. The results are expressed as mean amount of food consumed during the 5 days of treatment.

SMILES	Food consumption during the 5 days of treatment (CB1 receptor antagonist 0.6 mg/kg oral in miglyol (then methylcellulose/polysorbate vehicle), vehicles 25.52 ± 0.30, p < 0.01)	Food consumption during the 5 days of treatment (sibutramine 3 mg/kg oral (after miglyol), mean amount of food consumed, vehicles 25.52 ± 0.30, p < 0.05)
CS(=O)(=O)C(=C1CN(C(c2ccc(Cl)cc2)c2ccc(Cl)cc2)C1)c1cc(F)cc(F)c1 [CB1 receptor antagonist, 1-[bis(4-chlorophenyl)methyl]-3-[(3,5-difluorophenyl)-(methylsulfonyl)methylene]azetidine]	24.00 ± 0.24 g	–
CC(C)CC(N(C)C)C1(c2ccc(Cl)cc2)CCC1 (centres unmarked) [sibutramine, N-{1-[1-(4-chloro-phenyl)cyclobutyl]-3-methylbutyl}-N,N-dimethylamine]	–	24.60 ± 0.32 g
